Experimental data taken from publication PMC7065129, “Phospholipase D‐derived phosphatidic acid promotes root hair development under phosphorus deficiency by suppressing vacuolar degradation of PIN‐FORMED2” (The New Phytologist, 2019).

Molecular target: T1, SNX1 (SORTING NEXIN1; AtSNX1) (Arabidopsis thaliana, UniProt Q9FG38)
T1 construct: full-length cDNA in pET51b, His-tagged (tag kept), E. coli Rosetta (DE3), Ni-NTA purified
T1 sequence (Q9FG38 1-402): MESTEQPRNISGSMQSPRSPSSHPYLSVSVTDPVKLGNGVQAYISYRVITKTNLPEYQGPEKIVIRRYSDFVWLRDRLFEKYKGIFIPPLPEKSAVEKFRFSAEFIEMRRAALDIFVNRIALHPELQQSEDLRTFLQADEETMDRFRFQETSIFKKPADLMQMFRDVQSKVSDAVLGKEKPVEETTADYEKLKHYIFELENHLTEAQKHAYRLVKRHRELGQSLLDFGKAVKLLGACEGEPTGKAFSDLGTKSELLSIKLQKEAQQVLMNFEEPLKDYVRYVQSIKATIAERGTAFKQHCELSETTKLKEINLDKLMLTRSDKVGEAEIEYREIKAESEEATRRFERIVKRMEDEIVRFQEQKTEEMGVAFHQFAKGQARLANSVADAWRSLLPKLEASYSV
Experiment: liposome co-sedimentation, immunoblot
Format: binding
Conditions: dioleoyl PC/dioleoyl PA liposomes, pH 7.5, 25 °C; PA (acyl chains not told) also tested by lipid-protein overlay

## CCCCCCCC/C=C\CCCCCCCC(=O)OC[C@H](COP(=O)(O)O)OC(=O)CCCCCCC/C=C\CCCCCCCC [dioleoyl PA]
  liposome co-sedimentation, immunoblot: results confirmed the specific SNX1‐PA binding (Fig. 4b)
